{
  "source": "patent US20130184337A1",
  "about": "“SODIUM ASCORBATE STIMULATION OF ELASTOGENESIS” (THE HOSPITAL FOR SICK CHILDREN, priority 2012, published 2013)",
  "key": {"[1]": {"tested_on": "normal dermal fibroblasts", "experiment": "Elastic fiber deposition (immuno-staining morphometry, [3H]-valine insoluble elastin) in monolayer cultures", "assay_type": "cell-based, human", "procedure": "Cell Cultures—Fibroblasts initially grew out from the explants of these full thickness skin biopsies and were maintained. The primary cultures of fat-derived fibroblasts obtained from Thermogenesis (Rancho Cordova, Calif.) were also tested. In all described experiments, 2-4 passages of both kinds of fibroblasts were used. In experiments aimed at assessing ECM production, cells were initially plated at a concentration of 100,000 cells/dish.\nImmuno-staining—All cultures maintained in the presence and absence of indicated reagents were either fixed in cold 100% methanol at −20° C. (for detection of elastin) or in 4% paraformaldehyde at room temperature (for detection of collagen I). The multiple parallel cultures were then incubated with 10 μg/ml of polyclonal antibody to tropoelastin (Elastin Products, Owensville, Mich.), or polyclonal antibody to collagen type I (Chemicon, Temecula, Calif.). Cultures were then incubated with the respective fluorescein-conjugated goat anti-rabbit, goat anti-mouse, or rabbit anti-goat secondary antibodies. Nuclei were counterstained with propidium iodide (Sigma, Sigma, St. Louis, Mo.). All of the cultures were then examined with a Nikon Eclipse E1000 microscope attached to a cooled CCD camera (QImaging, Retiga EX) and analyzed by the computer-generated morphometric analysis system (Image-Pro Plus software, Media Cybernetics, Silver Springs, Md.) as previously described.\nQuantitative Assays of Insoluble Elastin—Fibroblasts were grown to confluency in 35-mm culture dishes (100,000 cells/dish). Next, 2 μCi of [3H]-valine/ml (Amersham Biosciences Ltd. Oakville, Canada), were added to each dish along with or without the indicated treatments. At the end of each experiment, the levels of metabolically labeled NaOH-insoluble elastin present in individual cultures were assayed and normalized per their DNA content."}, "tropoelastin mRNA": {"tested_on": "tropoelastin mRNA", "experiment": "RT-PCR of tropoelastin mRNA normalized to GAPDH mRNA", "assay_type": "cell-based, human", "settings": "50-200 μM, 18 hours, medium with 5% FBS", "procedure": "One-Step RT-PCR Analysis—The confluent cultures of skin fibroblasts were treated with or without the reagents of interest for different periods of time as indicated in the figure legend. Total RNA was extracted using the RNeasy Mini Kit, and the one-step RT-PCR reactions were set up with the RT-PCR Kit, according to the manufacturer's (Qiagen, Mississauga, ON) instructions. The amounts of tropoelastin mRNA were always normalized to the amount of GAPDH mRNA."}, "[2]": {"tested_on": "intracellular tropoelastin", "experiment": "Western blot of intracellular tropoelastin", "assay_type": "cell-based, human", "settings": "50-200 μM, 20-hour-old cultures, 5% FBS", "procedure": "Western Blots—At the end of indicated experiments, cells were lysed with NP-40 buffer containing a cocktail of broad spectrum inhibitors of proteinases and phosphatases. The 50 μg aliquots of protein extract were then resolved by SDS-PAGE gel (4-12% gradient) in reducing conditions and analyzed by Western blot with antibodies indicated in figure legends, as previously described. Initial blots were also re-probed with monoclonal anti-β-actin antibody (Cell Signaling Technology Inc., Danvers, Mass.) to confirm the equal protein loading. The degree of expression was measured by densitometry."}, "[3]": {"tested_on": "reactive oxygen species (ROS)", "experiment": "Intracellular ROS with CM-H2DCFDA probe (fluorescence microscope, flow cytophotometry)", "assay_type": "cell-based, human", "settings": "100 μM, 2 hours", "procedure": "Quantification of Intracellular free radicals-reactive oxygen species (ROS)—To assess the levels of ROS, quadruplicate cultures of normal skin fibroblasts were exposed to 10 μM of ROS-sensitive CM-H2DCFDA fluorescent probe (Molecular Probes, Eugene, Oreg.) for 30 minutes. This probe passively diffuses into the cell interior and only upon oxidation is a fluorescent product released that can be visualized under a fluorescent microscope or captured by flow cytophotometry when excited at 480 nm. Fibroblasts were then maintained for 30 minutes in the presence or absence of 400 μM probenecid, then incubated either for 2 or 24 hours with and without 100 μM AA or 100 μM SA. At the end of these periods the images were captured using a fluorescent microscope under identical parameters of contrast and brightness. The ROS production was also assessed by flow cytophotometry (λ excitation 480 nm; λ emission 520 nm), using FACSCalibur, Beckton Dickinson Instrument."}, "IGF-1 receptor": {"biological_target": "T1, IGF-1 receptor (Homo sapiens, UniProt P08069)", "T1 construct": "immuno-precipitated with antibody to β subunit of IGF-1R and detected by Western blotting with anti-phospho-tyrosine antibody; endogenous in cells; host or cells: cultured dermal fibroblasts", "T1 sequence (P08069 741-1367 limits assumed)": "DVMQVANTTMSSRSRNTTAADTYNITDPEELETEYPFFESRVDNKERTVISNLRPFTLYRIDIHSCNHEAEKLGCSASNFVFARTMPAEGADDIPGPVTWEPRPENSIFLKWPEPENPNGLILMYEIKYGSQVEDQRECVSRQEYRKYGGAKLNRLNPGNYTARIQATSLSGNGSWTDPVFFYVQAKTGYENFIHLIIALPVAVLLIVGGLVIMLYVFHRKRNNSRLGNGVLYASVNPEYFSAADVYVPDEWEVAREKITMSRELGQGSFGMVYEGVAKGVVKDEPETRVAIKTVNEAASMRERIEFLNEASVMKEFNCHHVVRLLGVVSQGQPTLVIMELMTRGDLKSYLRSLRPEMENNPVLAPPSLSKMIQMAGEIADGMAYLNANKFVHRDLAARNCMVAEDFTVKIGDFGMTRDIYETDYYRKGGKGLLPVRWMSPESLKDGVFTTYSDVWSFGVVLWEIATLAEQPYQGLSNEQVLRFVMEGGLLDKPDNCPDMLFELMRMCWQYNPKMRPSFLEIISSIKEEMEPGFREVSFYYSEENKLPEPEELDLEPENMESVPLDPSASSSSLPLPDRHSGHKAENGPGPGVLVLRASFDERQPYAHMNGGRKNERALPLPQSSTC", "T1 sequence (P08069 31-736 partner limits assumed)": "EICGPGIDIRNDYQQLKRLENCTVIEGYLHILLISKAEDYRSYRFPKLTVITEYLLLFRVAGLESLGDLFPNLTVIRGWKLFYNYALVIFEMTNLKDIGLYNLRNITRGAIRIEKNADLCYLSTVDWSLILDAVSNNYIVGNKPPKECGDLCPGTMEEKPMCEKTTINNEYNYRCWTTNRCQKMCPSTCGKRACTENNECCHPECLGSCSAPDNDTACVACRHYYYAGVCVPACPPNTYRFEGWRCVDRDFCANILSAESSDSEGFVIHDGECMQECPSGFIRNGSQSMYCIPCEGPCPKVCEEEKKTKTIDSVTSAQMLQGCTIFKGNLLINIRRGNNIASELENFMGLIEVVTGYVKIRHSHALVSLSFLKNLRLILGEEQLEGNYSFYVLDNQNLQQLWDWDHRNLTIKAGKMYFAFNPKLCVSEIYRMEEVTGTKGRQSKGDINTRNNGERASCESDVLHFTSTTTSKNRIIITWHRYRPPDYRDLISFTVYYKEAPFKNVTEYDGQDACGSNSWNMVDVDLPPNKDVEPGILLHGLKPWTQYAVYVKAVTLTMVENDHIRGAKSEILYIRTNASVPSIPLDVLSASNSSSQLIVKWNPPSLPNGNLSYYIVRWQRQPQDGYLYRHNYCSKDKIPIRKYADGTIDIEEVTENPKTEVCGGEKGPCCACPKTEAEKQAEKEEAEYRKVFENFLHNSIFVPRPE", "experiment": "IGF-1R phosphorylation (immuno-precipitation, anti-phospho-tyrosine Western blot)", "assay_type": "cell-based", "settings": "for levels of IGF-1R phosphorylation: 100 μM SA alone", "procedure": "At the end of each experiment cells were submerged in the lysis buffer containing a broad-range phosphatase inhibitor. The polyclonal antibodies recognizing either the β subunits of the IGF-IR or the β subunit of the insulin receptor were immobilized on separate sets of the IgG-bearing magnetic beads (Invitrogen Canada Inc, Burlington, ON) and then incubated for 1 hour with the aliquots of the cell lysates containing 400 μg of protein as described in the manufacturer protocol. The beads bearing the resulting immuno-precipitation products were re-suspended in sample buffer and the released proteins were resolved with SDS-PAGE and subjected to Western blotting with a monoclonal anti-p-Tyr (PY99) antibody from Santa Cruz Biotechnology Inc. (Santa Cruz, Calif.) and then with HRP-conjugated goat anti-mouse secondary antibody."}},
  "note": "Entries after “also recorded” stand apart in the source; their conditions may differ.",
  "data": [
    {"smiles": "O=C1O[C@H]([C@@H](O)CO)C([O-])=C1O.[Na+]", "note": "[SA, (+)-sodium L-ascorbate]", "values": [
      {"measurement": "production of immuno-detectable elastic fibers", "setting": "[1]; 50 μM to 200 μM, 24-hour-old cultures, 5% FBS", "value": "significantly stimulated production of immuno-detectable elastic fibers; also recorded: upregulate production of elastic fibers"},
      {"measurement": "elastin deposition, SA added to IGF-1", "setting": "[1]; 100 μM SA added to 50 ng/ml IGF-1", "value": "significantly up-regulated the levels of elastin deposition"},
      {"measurement": "elastogenesis, SA added to dexamethasone", "setting": "[1]; 100 μM SA added to 1 μM dexamethasone", "value": "did not further enhance the increase in elastogenesis"},
      {"measurement": "elastogenesis / net deposition of new elastic fibers", "setting": "[1]; 100 μM alone, 24 hours, 5% FBS", "value": "remarkable up-regulation in the net deposition of new elastic fibers; also recorded: similarly strong elastogenic effects as treatment with 50 ng/ml of exogenous IGF-1; also recorded: upregulates elastogenesis only in cultures of dermal fibroblasts maintained in media containing 5% FBS"},
      {"measurement": "deposition of elastic fibers", "setting": "[1]; 400 μM, 24-hour-old cultures, 5% FBS", "value": "did not further stimulate deposition of elastic fibers"},
      {"measurement": "elastogenesis", "setting": "[1]; 800 μM, 24-hour-old cultures, 5% FBS", "value": "clear inhibition of elastogenesis; also recorded: inhibits elastogenesis"},
      {"measurement": "elastogenic effects in serum-free medium", "setting": "[1]; SA, 18-24 hour-old cultures, serum-free medium", "value": "could not be observed in cultures maintained in serum-free medium"},
      {"measurement": "levels of tropoelastin-encoding mRNA", "setting": "tropoelastin mRNA", "value": "significant and dose-dependent up-regulation"},
      {"measurement": "levels of newly synthesized tropoelastin", "setting": "[2]", "value": "increase in the levels of newly synthesized tropoelastin"},
      {"measurement": "levels of intracellular ROS", "setting": "[3]", "value": "significantly lower levels of ROS"},
      {"measurement": "levels of IGF-1R phosphorylation", "setting": "IGF-1 receptor; medium with FBS", "value": "remarkably enhanced levels of IGF-1R phosphorylation; also recorded: enhances the level of phosphorylation of the IGF-1R"},
      {"measurement": "levels of IGF-1R phosphorylation", "setting": "IGF-1 receptor; serum-free medium", "value": "did not reveal any increase in IGF-1R phosphorylation"},
      {"measurement": "levels of IGF-1-induced IGF-1R phosphorylation", "setting": "IGF-1 receptor; 100 μM SA plus 50 ng/ml IGF-1, both tested media", "value": "significantly enhanced the levels of phosphorylated IGF-IR; also recorded: enhances levels of IGF-1-induced IGF-IR phosphorylation in both tested media"}
    ]}
  ]
}
